The source made the active and inactive calls. No cut-off for these calls is given here.
Experiments:
Format in all cases: functional
Candida tropicalis [1] = experiment: Antifungal activity against Candida tropicalis ATCC 13803 after 18 hr by agar well diffusion method
Candida albicans [2] = experiment: Antifungal activity against Candida albicans ATCC 60193 after 18 hr by agar well diffusion method
[3] = system: Mycolicibacterium smegmatis; experiment: Antibacterial activity against Mycobacterium smegmatis ATCC 607 after 18 hr by agar well diffusion method
[4] = system: Yersinia pseudotuberculosis; experiment: Antibacterial activity against Yersinia pseudotuberculosis ATCC 911 after 18 hr by agar well diffusion method
Klebsiella aerogenes [5] = experiment: Antibacterial activity against Enterobacter aerogenes ATCC 13048 after 18 hr by agar well diffusion method
Escherichia coli [6] = experiment: Antibacterial activity against Escherichia coli ATCC 25922 after 18 hr by agar well diffusion method
Klebsiella pneumoniae [7] = experiment: Antibacterial activity against Klebsiella pneumoniae ATCC 13883 after 18 hr by agar well diffusion method
Staphylococcus aureus [8] = experiment: Antibacterial activity against Staphylococcus aureus ATCC 25923 after 18 hr by agar well diffusion method
Enterococcus faecalis [9] = experiment: Antibacterial activity against Enterococcus faecalis ATCC 29212 after 18 hr by agar well diffusion method
Listeria monocytogenes [10] = experiment: Antibacterial activity against Listeria monocytogenes ATCC 43251 after 18 hr by agar well diffusion method
Bacillus cereus [11] = experiment: Antibacterial activity against Bacillus cereus 702 Roma after 18 hr by agar well diffusion method
Enterococcus faecalis [12] = experiment: Antibacterial activity against Enterococcus faecalis ATCC 29212 at 10 mg after 18 hr by agar well diffusion method; settings: ATCC 29212, 18 h, read-out: IZ
Staphylococcus aureus [13] = experiment: Antibacterial activity against Staphylococcus aureus ATCC 25923 at 10 mg after 18 hr by agar well diffusion method; settings: ATCC 25923, 18 h, read-out: IZ
Klebsiella pneumoniae [14] = experiment: Antibacterial activity against Klebsiella pneumoniae ATCC 13883 at 10 mg after 18 hr by agar well diffusion method; settings: ATCC 13883, 18 h, read-out: IZ
[15] = system: Yersinia pseudotuberculosis; experiment: Antibacterial activity against Yersinia pseudotuberculosis ATCC 911 at 10 mg after 18 hr by agar well diffusion method; settings: ATCC 911, 18 h, read-out: IZ
Klebsiella aerogenes [16] = experiment: Antibacterial activity against Enterobacter aerogenes ATCC 13048 at 10 mg after 18 hr by agar well diffusion method; settings: ATCC 13048, 18 h, read-out: IZ
Escherichia coli [17] = experiment: Antibacterial activity against Escherichia coli ATCC 25922 at 10 mg after 18 hr by agar well diffusion method; settings: ATCC 25922, 18 h, read-out: IZ
Bacillus cereus [18] = experiment: Antibacterial activity against Bacillus cereus 702 Roma at 10 mg after 18 hr by agar well diffusion method; settings: read-out: IZ
Listeria monocytogenes [19] = experiment: Antibacterial activity against Listeria monocytogenes ATCC 43251 at 10 mg after 18 hr by agar well diffusion method; settings: ATCC 43251, 18 h, read-out: IZ
Candida tropicalis [20] = experiment: Antifungal activity against Candida tropicalis ATCC 13803 at 5 mg after 18 hr by agar well diffusion method; settings: ATCC 13803, 18 h, read-out: IZ
Candida albicans [21] = experiment: Antifungal activity against Candida albicans ATCC 60193 at 5 mg after 18 hr by agar well diffusion method; settings: ATCC 60193, 18 h, read-out: IZ

Compound: O=c1n(S(=O)(=O)c2ccc(Cl)cc2)nc(Cc2ccccc2)n1Cc1ccco1
- inhibition zone (IZ) (Candida tropicalis [1]): inactive
- inhibition zone (IZ) (Candida albicans [2]): inactive
- inhibition zone (IZ) [3]: 10 mm
- inhibition zone (IZ) [4]: 8 mm
- inhibition zone (IZ) (Klebsiella aerogenes [5]): 8 mm
- inhibition zone (IZ) (Escherichia coli [6]): 6 mm
- inhibition zone (IZ) (Klebsiella pneumoniae [7]): 10 mm
- inhibition zone (IZ) (Staphylococcus aureus [8]): 15 mm
- inhibition zone (IZ) (Enterococcus faecalis [9]): 10 mm
- inhibition zone (IZ) (Listeria monocytogenes [10]): inactive
- inhibition zone (IZ) (Bacillus cereus [11]): inactive

Compound: CCCS(=O)(=O)n1nc(Cc2ccccc2)n(Cc2ccco2)c1=O
- inhibition zone (IZ) (Candida tropicalis [1]): inactive
- inhibition zone (IZ) (Candida albicans [2]): inactive
- inhibition zone (IZ) [3]: 15 mm
- inhibition zone (IZ) [4]: 10 mm
- inhibition zone (IZ) (Klebsiella aerogenes [5]): 8 mm
- inhibition zone (IZ) (Escherichia coli [6]): 8 mm
- inhibition zone (IZ) (Klebsiella pneumoniae [7]): 10 mm
- inhibition zone (IZ) (Staphylococcus aureus [8]): 15 mm
- inhibition zone (IZ) (Enterococcus faecalis [9]): 8 mm
- inhibition zone (IZ) (Listeria monocytogenes [10]): inactive
- inhibition zone (IZ) (Bacillus cereus [11]): inactive

Compound: CC1(C)S[C@@H]2[C@H](NC(=O)[C@H](N)c3ccccc3)C(=O)N2[C@H]1C(=O)O [AMPICILLIN]
- zone of inhibition at 10000 µg/disc (Enterococcus faecalis [12]): 10 mm
- zone of inhibition at 10000 µg/disc (Staphylococcus aureus [13]): 35 mm
- zone of inhibition at 10000 µg/disc (Klebsiella pneumoniae [14]): 18 mm
- zone of inhibition at 10000 µg/disc [15]: > 18 mm
- zone of inhibition at 10000 µg/disc (Klebsiella aerogenes [16]): 10 mm
- zone of inhibition at 10000 µg/disc (Escherichia coli [17]): 10 mm
- inhibition zone (IZ) (Candida tropicalis [1]): inactive
- inhibition zone (IZ) (Candida albicans [2]): inactive
- zone of inhibition at 10000 µg/disc (Bacillus cereus [18]): 15 mm
- zone of inhibition at 10000 µg/disc (Listeria monocytogenes [19]): 10 mm

Compound: Cc1n[nH]c(=O)n1Cc1ccco1
- inhibition zone (IZ) (Candida tropicalis [1]): inactive
- inhibition zone (IZ) (Candida albicans [2]): inactive
- inhibition zone (IZ) [3]: 10 mm
- inhibition zone (IZ) [4]: inactive
- inhibition zone (IZ) (Klebsiella aerogenes [5]): 10 mm
- inhibition zone (IZ) (Escherichia coli [6]): inactive
- inhibition zone (IZ) (Klebsiella pneumoniae [7]): 10 mm
- inhibition zone (IZ) (Staphylococcus aureus [8]): 20 mm
- inhibition zone (IZ) (Enterococcus faecalis [9]): inactive
- inhibition zone (IZ) (Listeria monocytogenes [10]): 6 mm
- inhibition zone (IZ) (Bacillus cereus [11]): 8 mm

Compound: OC(Cn1cncn1)(Cn1cncn1)c1ccc(F)cc1F [FLUCONAZOLE]
- zone of inhibition at 5000 µg/disc (Candida tropicalis [20]): 25 mm
- zone of inhibition at 5000 µg/disc (Candida albicans [21]): 25 mm

Compound: Cc1n[nH]c(=O)n1CC1CCCO1 (centres undefined)
- inhibition zone (IZ) (Candida tropicalis [1]): inactive
- inhibition zone (IZ) (Candida albicans [2]): inactive
- inhibition zone (IZ) [3]: 15 mm
- inhibition zone (IZ) [4]: inactive
- inhibition zone (IZ) (Klebsiella aerogenes [5]): 8 mm
- inhibition zone (IZ) (Escherichia coli [6]): inactive
- inhibition zone (IZ) (Klebsiella pneumoniae [7]): 8 mm
- inhibition zone (IZ) (Staphylococcus aureus [8]): 20 mm
- inhibition zone (IZ) (Enterococcus faecalis [9]): 10 mm
- inhibition zone (IZ) (Listeria monocytogenes [10]): 7 mm
- inhibition zone (IZ) (Bacillus cereus [11]): 15 mm

Compound: Cc1nn(Cc2n[nH]c(=O)n2Cc2ccccc2)c(=O)n1Cc1ccco1
- inhibition zone (IZ) (Candida tropicalis [1]): inactive
- inhibition zone (IZ) (Candida albicans [2]): inactive
- inhibition zone (IZ) [3]: inactive
- inhibition zone (IZ) [4]: 10 mm
- inhibition zone (IZ) (Klebsiella aerogenes [5]): 6 mm
- inhibition zone (IZ) (Escherichia coli [6]): 8 mm
- inhibition zone (IZ) (Klebsiella pneumoniae [7]): 10 mm
- inhibition zone (IZ) (Staphylococcus aureus [8]): inactive
- inhibition zone (IZ) (Enterococcus faecalis [9]): inactive
- inhibition zone (IZ) (Listeria monocytogenes [10]): inactive
- inhibition zone (IZ) (Bacillus cereus [11]): 6 mm

Compound: O=c1[nH]nc(Cc2ccccc2)n1Cc1ccco1
- inhibition zone (IZ) (Candida tropicalis [1]): inactive
- inhibition zone (IZ) (Candida albicans [2]): inactive
- inhibition zone (IZ) [3]: 10 mm
- inhibition zone (IZ) [4]: inactive
- inhibition zone (IZ) (Klebsiella aerogenes [5]): 10 mm
- inhibition zone (IZ) (Escherichia coli [6]): inactive
- inhibition zone (IZ) (Klebsiella pneumoniae [7]): 10 mm
- inhibition zone (IZ) (Staphylococcus aureus [8]): 20 mm
- inhibition zone (IZ) (Enterococcus faecalis [9]): 10 mm
- inhibition zone (IZ) (Listeria monocytogenes [10]): 8 mm
- inhibition zone (IZ) (Bacillus cereus [11]): 8 mm

Compound: O=c1n(S(=O)(=O)c2ccc(Br)cc2)nc(Cc2ccccc2)n1Cc1ccco1
- inhibition zone (IZ) (Candida tropicalis [1]): inactive
- inhibition zone (IZ) (Candida albicans [2]): inactive
- inhibition zone (IZ) [3]: 10 mm
- inhibition zone (IZ) [4]: 8 mm
- inhibition zone (IZ) (Klebsiella aerogenes [5]): 8 mm
- inhibition zone (IZ) (Escherichia coli [6]): 10 mm
- inhibition zone (IZ) (Klebsiella pneumoniae [7]): 15 mm
- inhibition zone (IZ) (Staphylococcus aureus [8]): 10 mm
- inhibition zone (IZ) (Enterococcus faecalis [9]): 8 mm
- inhibition zone (IZ) (Listeria monocytogenes [10]): inactive
- inhibition zone (IZ) (Bacillus cereus [11]): inactive

Compound: Cc1nn(S(=O)(=O)c2ccc([N+](=O)[O-])cc2)c(=O)n1Cc1ccco1
- inhibition zone (IZ) (Candida tropicalis [1]): inactive
- inhibition zone (IZ) (Candida albicans [2]): inactive
- inhibition zone (IZ) [3]: 40 mm
- inhibition zone (IZ) [4]: 12 mm
- inhibition zone (IZ) (Klebsiella aerogenes [5]): 15 mm
- inhibition zone (IZ) (Escherichia coli [6]): 15 mm
- inhibition zone (IZ) (Klebsiella pneumoniae [7]): 20 mm
- inhibition zone (IZ) (Staphylococcus aureus [8]): 15 mm
- inhibition zone (IZ) (Enterococcus faecalis [9]): 6 mm
- inhibition zone (IZ) (Listeria monocytogenes [10]): inactive
- inhibition zone (IZ) (Bacillus cereus [11]): 15 mm

Compound: Cc1nn(S(=O)(=O)c2ccccc2)c(=O)n1Cc1ccco1
- inhibition zone (IZ) (Candida tropicalis [1]): inactive
- inhibition zone (IZ) (Candida albicans [2]): inactive
- inhibition zone (IZ) [3]: 20 mm
- inhibition zone (IZ) [4]: 12 mm
- inhibition zone (IZ) (Klebsiella aerogenes [5]): 15 mm
- inhibition zone (IZ) (Escherichia coli [6]): 20 mm
- inhibition zone (IZ) (Klebsiella pneumoniae [7]): 20 mm
- inhibition zone (IZ) (Staphylococcus aureus [8]): 35 mm
- inhibition zone (IZ) (Enterococcus faecalis [9]): 25 mm
- inhibition zone (IZ) (Listeria monocytogenes [10]): 20 mm
- inhibition zone (IZ) (Bacillus cereus [11]): 15 mm

Compound: CN[C@@H]1[C@H](O[C@H]2[C@H](O[C@H]3[C@H](O)[C@@H](O)[C@H](N=C(N)N)[C@@H](O)[C@@H]3N=C(N)N)O[C@@H](C)[C@]2(O)C=O)O[C@@H](CO)[C@H](O)[C@H]1O [STREPTOMYCIN]
- inhibition zone (IZ) [3]: 35 mm

Compound: CCOC(=O)Cn1nc(C)n(Cc2ccco2)c1=O
- inhibition zone (IZ) (Candida tropicalis [1]): 7 mm
- inhibition zone (IZ) (Candida albicans [2]): 9 mm
- inhibition zone (IZ) [3]: 15 mm
- inhibition zone (IZ) [4]: inactive
- inhibition zone (IZ) (Klebsiella aerogenes [5]): 10 mm
- inhibition zone (IZ) (Escherichia coli [6]): inactive
- inhibition zone (IZ) (Klebsiella pneumoniae [7]): 10 mm
- inhibition zone (IZ) (Staphylococcus aureus [8]): 8 mm
- inhibition zone (IZ) (Enterococcus faecalis [9]): inactive
- inhibition zone (IZ) (Listeria monocytogenes [10]): 8 mm
- inhibition zone (IZ) (Bacillus cereus [11]): 6 mm

Compound: Cc1nn(Cc2nnc(S)n2-c2ccccc2)c(=O)n1Cc1ccco1
- inhibition zone (IZ) (Candida tropicalis [1]): inactive
- inhibition zone (IZ) (Candida albicans [2]): inactive
- inhibition zone (IZ) [3]: inactive
- inhibition zone (IZ) [4]: 10 mm
- inhibition zone (IZ) (Klebsiella aerogenes [5]): 6 mm
- inhibition zone (IZ) (Escherichia coli [6]): 6 mm
- inhibition zone (IZ) (Klebsiella pneumoniae [7]): 10 mm
- inhibition zone (IZ) (Staphylococcus aureus [8]): inactive
- inhibition zone (IZ) (Enterococcus faecalis [9]): inactive
- inhibition zone (IZ) (Listeria monocytogenes [10]): inactive
- inhibition zone (IZ) (Bacillus cereus [11]): inactive
